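Protocol summary: plate cells (96-well), add compound at 5 concentrations, incubate 48 h, interpolate endpoints linearly. At the GI50, growth is halved.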 Active and inactive are the calls of the source. Rule as the data show it: active = GI50 up to about 1.1 µM and inactive = higher.
Columns and labels:
Test in all cases: growth of human tumour cells (NCI), 48 h
NCI-H460 = tested on: NCI-H460
SF-539 = tested on: SF-539
MOLT-4 = tested on: MOLT-4
UO-31 = tested on: UO-31
KM12 = tested on: KM12
SN12C = tested on: SN12C
SF-268 = tested on: SF-268
OVCAR-5 = tested on: OVCAR-5
SW-620 = tested on: SW-620
ACHN = tested on: ACHN
786-0 = tested on: 786-0
NCI-H23 = tested on: NCI-H23
HOP-92 = tested on: HOP-92
HT-29 = tested on: HT-29
SK-MEL-2 = tested on: SK-MEL-2

SMILES | GI50 (NCI-H460) | GI50 (SF-539) | GI50 (MOLT-4) | GI50 (UO-31) | GI50 (KM12) | GI50 (SN12C) | GI50 (SF-268) | GI50 (OVCAR-5) | GI50 (SW-620) | GI50 (ACHN) | GI50 (786-0) | GI50 (NCI-H23) | GI50 (HOP-92) | GI50 (HT-29) | GI50 (SK-MEL-2)
Cc1cc(O)c2c(c1)OC1(C)CCC3C(C)(C)CCCC34COC2C14 (stereo not given) | 16.4 µM (inactive) | 6.43 µM (inactive) | 0.141 µM (active) | 16.7 µM (inactive) | 16.8 µM (inactive) | 16.7 µM (inactive) | 13.6 µM (inactive) | 14.7 µM (inactive) | 15.5 µM (inactive) | 12.7 µM (inactive) | 14.4 µM (inactive) | 17.6 µM (inactive) |  |  | 
COc1ccc(-c2cc(-c3cc(C)ccc3O)nc(O)n2)cc1 | > 100 µM (inactive) | 30.1 µM (inactive) | > 100 µM (inactive) | 76.6 µM (inactive) | > 100 µM (inactive) | > 100 µM (inactive) | 80.9 µM (inactive) |  | > 100 µM (inactive) | 42.8 µM (inactive) | 62.5 µM (inactive) | > 100 µM (inactive) | 32.6 µM (inactive) | > 100 µM (inactive) | 
C[C@]12CCCC(=O)C1C[C@H](C(=O)O)CC2 (stereo not given in full) | > 100 µM (inactive) | > 100 µM (inactive) | > 100 µM (inactive) | > 100 µM (inactive) | > 100 µM (inactive) | > 100 µM (inactive) | > 100 µM (inactive) | > 100 µM (inactive) | > 100 µM (inactive) | > 100 µM (inactive) | > 100 µM (inactive) | > 100 µM (inactive) | > 100 µM (inactive) | > 100 µM (inactive) | > 100 µM (inactive)
CC1=C(C)C(=O)C2=C(OCCCO2)C1=O | > 10 µM (inactive) | > 10 µM (inactive) | 2.4 µM (inactive) | 16.5 µM (inactive) | > 10 µM (inactive) | > 10 µM (inactive) | 18.3 µM (inactive) | > 10 µM (inactive) | 17 µM (inactive) | 18.4 µM (inactive) | 19.2 µM (inactive) | > 10 µM (inactive) |  | 20.8 µM (inactive) | > 10 µM (inactive)
Cc1ccnc(NS(=O)(=O)c2ccc(NC3=CC(=O)C(=O)c4ccccc43)cc2)n1 | > 100 µM (inactive) | > 100 µM (inactive) | > 100 µM (inactive) | > 100 µM (inactive) | > 100 µM (inactive) | > 100 µM (inactive) | > 100 µM (inactive) | > 100 µM (inactive) | > 100 µM (inactive) | > 100 µM (inactive) | > 100 µM (inactive) | > 100 µM (inactive) |  | > 100 µM (inactive) | > 100 µM (inactive)
COC(=O)C(CC(=O)Nc1ccc(C)cc1)C(=O)C(=O)Nc1ccccc1C(C)C (stereo not given) | > 100 µM (inactive) | > 100 µM (inactive) | > 100 µM (inactive) | > 100 µM (inactive) | > 100 µM (inactive) | > 100 µM (inactive) | > 100 µM (inactive) | > 100 µM (inactive) | 22.2 µM (inactive) | > 100 µM (inactive) | > 100 µM (inactive) | > 100 µM (inactive) | > 100 µM (inactive) | > 100 µM (inactive) | > 100 µM (inactive)
COc1ccc(NC(=O)C(=O)C2NC(=S)NC2=O)c(OC)c1 (stereo not given) | > 100 µM (inactive) | > 100 µM (inactive) | > 100 µM (inactive) | > 100 µM (inactive) | > 100 µM (inactive) | > 100 µM (inactive) | > 100 µM (inactive) |  | > 100 µM (inactive) | > 100 µM (inactive) | > 100 µM (inactive) | > 100 µM (inactive) | > 100 µM (inactive) | > 100 µM (inactive) | > 100 µM (inactive)
N#C/C(c1nc2ccccc2[nH]1)=c1\s/c(=C/c2ccccc2)c(=O)n1-c1ccccc1 | 65.2 µM (inactive) | > 100 µM (inactive) | 9.89 µM (inactive) | > 100 µM (inactive) | > 100 µM (inactive) | > 100 µM (inactive) | > 100 µM (inactive) | > 100 µM (inactive) | > 100 µM (inactive) | > 100 µM (inactive) | > 100 µM (inactive) | > 100 µM (inactive) | > 100 µM (inactive) |  | > 100 µM (inactive)
O=C(CSc1nnc(Cc2ccccc2)o1)Nc1ccccc1Cl | > 100 µM (inactive) | > 100 µM (inactive) | > 100 µM (inactive) | > 100 µM (inactive) | > 100 µM (inactive) | > 100 µM (inactive) | > 100 µM (inactive) | > 100 µM (inactive) | > 100 µM (inactive) | > 100 µM (inactive) | > 100 µM (inactive) | > 100 µM (inactive) |  | > 100 µM (inactive) | > 100 µM (inactive)
CCCCCCCCCCNC(=S)OCCCC | 21.9 µM (inactive) | 21.7 µM (inactive) | 14.7 µM (inactive) | 23.5 µM (inactive) | 14.7 µM (inactive) | 19.7 µM (inactive) | 22.8 µM (inactive) | 11.3 µM (inactive) | 19.2 µM (inactive) | 28.1 µM (inactive) | 29.1 µM (inactive) | 23.1 µM (inactive) | 16.7 µM (inactive) | 19.5 µM (inactive) | 12.8 µM (inactive)
